Earlier results on seven compounds are cited in patent US20260199305A1, “LONG-ACTING ORAL PHARMACEUTICAL COMPRISING HYPOXIA-INDUCIBLE FACTOR PROLYL HYDROLASE INHIBITOR AND USE THEREOF” (Kind Pharmaceutical, priority 2023, published 2026).

Each structure is given as a SMILES string. Read-outs that look alike come from different tables or passages of the source.

The conditions of the data set: cited from earlier work.

The term t½ denotes the time needed for the level to fall by half in the phase considered. Take `O=C(O)CNC(=O)C1C(=O)N(C2CCCCC2)C(=O)N(C2CCCCC2)C1=O` [Daprodustat]: under “in patients with chronic kidney disease anemia, literature”, the t½ is given as ~ 7 hours.

As to `O=C(O)CNC(=O)c1c(O)c2ccccc2n(OCC2CC2)c1=O` [Desidustat], the t½ (literature value) is 6 to 15 h.

As for `O=C(O)CNC(=O)c1c(O)cc(CCc2ccccc2)n2ncnc12` [Enarodustat], under “literature value”, the t½ is 8.2 to 8.7 h. Take `O=c1c(-n2ccnn2)c[nH]n1-c1cc(N2CCOCC2)ncn1` [Molidustat]: the t½ (literature value) is 4 to 10 h.

On to `Cc1nc(C(=O)NCC(=O)O)c(O)c2ccc(Oc3ccccc3)cc12` [Roxadustat], for which, where the note is “literature value”, the t½ was 12 to 15 h. With `Cn1c(=O)cc(N2CCC[C@@H](N)C2)n(Cc2cc(F)ccc2C#N)c1=O` [Trelagliptin], the “elimination half-life (t½)” value (literature value (J Diabetes Investig 2018)) was 38.44 to 54.26 h. `O=C(O)CNC(=O)c1ncc(-c2cccc(Cl)c2)cc1O` [Vadadustat]: under “literature value”, the t½ is 4.7 to 9.1 h.
